Where two headings read alike, the source gives them in different places.
Experiments:
[1] = Brain concentrations and brain pharmacokinetics after a single oral (gavage) dose in fasted male Sprague-Dawley rats, LC-MS/MS; assay type: in vivo; details: for measurable brain concentrations: after 2 mg/kg oral; for concentration at 1 h: 1 hour post dose; for concentration at 4 h: 4 hour post dose; for concentration at 14 h: 14 hour post dose
Description: Water was provided ad libitum.
Immediately after the 1, 4, 8 and 14-hour blood collections, three animals/group were euthanized and the brain was dissected out of each rat. The brains were rinsed with saline and dried, placed in pre-weighed conical tubes, and flash frozen in liquid nitrogen. Brain weights were calculated for each sample.

[2] = Plasma pharmacokinetics after a single oral (gavage) dose in fasted male Sprague-Dawley rats, LC-MS/MS; details: for Concentration in plasma, Mean: fasted male Sprague-Dawley rats, n = 3/time point; for measurable plasma concentrations: after 2 mg/kg oral; for AUClast / T 1/2 (terminal half life): fasted male Sprague Dawley rats;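 as to all read-outs here: plasma from heparinized blood sampled up to 14 h post dose, three rats per timepoint, parameters by non-compartmental analysis of mean concentration-time data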
Description: (§1) Serial blood samples were collected from three animals per group per timepoint prior to dosing and at 0.25, 0.5, 1, 2, 3 4, 6, 8, 10, 12, and 14-hours post dose.
(§2) Animals were fasted overnight prior to dose administration. Water was provided ad libitum. Food was returned after the collection of the 4-hour samples.
(§3) Doses (rounded to the nearest 0.001 mL) were calculated based on the pretreatment body weight (kg) and a dose volume of 10 mL/kg.
(§4) Serial blood samples (˜300 μL) were collected from three animals per group per timepoint into tubes containing sodium heparin prior to dosing and at 0.25, 0.5, 1, 2, 3, 4, 6, 8, 10, 12, and 14-hours post dose. […] Blood samples were stored on wet ice until being processed for plasma via centrifugation (3500 g for 10 minutes at 5° C.) within 30 minutes of collection.
(§5) The concentration-time data were analyzed to fit an extra-vascular (oral gavage) dosing plasma analysis model (200) using the software WinNonlin Phoenix version 6.3 (Pharsight).
(§6) Half-lives are reported if the correlation for the regression line, as measured by r squared, is ≥0.9, when rounded.

in vivo = details: male, Sprague-Dawley, rat, plasma, po, 2 mg/kg
Description: as §1, §2, §3, §4, §5, §6

[3] = male, Sprague-Dawley, rat, brain, po, 2 mg/kg, oral gavage 2 mg/kg, fasted male Sprague-Dawley rats, n = 3/time point
[4] = male, Sprague-Dawley, rat, brain, po, 2 mg/kg, brain, molecular weight corrected (caffeine values multiplied by 0.956), oral gavage 2 mg/kg, rats, read-out: AUClast,corr
[5] = male, Sprague-Dawley, rat, brain, po, 2 mg/kg, brain, molecular weight corrected (caffeine values multiplied by 0.956), oral gavage 2 mg/kg, rats, read-out: Cmax,corr
[6] = male, Sprague-Dawley, rat, brain, po, 2 mg/kg, brain, oral gavage 2 mg/kg, fasted male Sprague Dawley rats, read-out: AUClast
[7] = male, Sprague-Dawley, rat, brain, po, 2 mg/kg, brain, oral gavage 2 mg/kg, fasted male Sprague Dawley rats, read-out: Cmax
[8] = male, Sprague-Dawley, rat, brain, po, 2 mg/kg, oral dose 2 mg/kg, rats, read-out: AUClast in brain
[9] = rat, brain/plasma, oral gavage 2 mg/kg, fasted male Sprague Dawley rats, read-out: Ratio Brain/Plasma Cmax
[10] = rat, brain, oral gavage 2 mg/kg, fasted male Sprague Dawley rats
[11] = rat, brain, oral gavage 2 mg/kg, fasted male Sprague Dawley rats, read-out: Ratio Brain/Plasma AUClast
[12] = plasma, molecular weight corrected (caffeine values multiplied by 0.956), oral gavage 2 mg/kg, rats
[13] = in words, molecular weight corrected, oral 2 mg/kg, rats

SMILES | measurable brain concentrations ([1]; in words, rats) | concentration at 1 h [1, 3] | concentration at 4 h [1, 3] | concentration at 14 h [1, 3] | AUC(0-t) [1, 4] | Cmax [1, 5] | AUC(0-t) [1, 6] | Cmax [1, 7] | AUC(0-t) [1, 8] | Kp [1, 9] | Tmax [1, 10] | Kp [1, 11] | measurable plasma concentrations ([2]; in words, rats) | AUCinf, corr [2, 12] | AUClast, corr [2, 12] | AUClast ([2]; plasma, oral gavage 2 mg/kg) | T 1/2 (terminal half life) ([2]; plasma, oral gavage 2 mg/kg) | AUC(0-inf) (in vivo) | AUC(0-t) (in vivo) | Cmax (in vivo) | also measured
Cn1c(=O)c2c(ncn2C)n(C)c1=O [Caffeine, reference compound] | detected in all animals evaluated at each time point through 14 hours post dose | 1910 ng/g | 1210 ng/g | 62.6 ng/g | 10500 ng·h/mL | 1820 ng/mL | 11000 ng·h/mL | 1900 ng/mL | 11000 ng·h/mL | 0.73 | 1 h | 0.69 | detected in all animals evaluated at each time point through 14 hours post dose | 15296 ng·h/mL | 15296 ng·h/mL | 16000 ng·h/mL | 1.9 h | 16000 ng·h/mL | 16000 ng·h/mL | 2600 ng/mL | concentration at 8 h ([1]; male, Sprague-Dawley, rat, brain, po, 2 mg/kg, 8 hour post dose, oral gavage 2 mg/kg, fasted male Sprague-Dawley rats, n = 3/time point): 553 ng/g; AUC(0-inf) [1, 10]: 11000 ng·h/mL; Concentration in plasma, Mean ([2]; 8 hour post dose, oral gavage 2 mg/kg): 849 ng/mL; Concentration in plasma, Mean ([2]; 10 hour post dose, oral gavage 2 mg/kg): 344 ng/mL; Concentration in plasma, Mean ([2]; 12 hour post dose, oral gavage 2 mg/kg): 171 ng/mL; Concentration in plasma, Mean ([2]; 14 hour post dose, oral gavage 2 mg/kg): 97.1 ng/mL; Tmax (in vivo): 1 h; concentration at 0.25 h (in vivo): 2420 ng/mL; concentration at 0.5 h (in vivo): 2410 ng/mL; concentration at 1 h (in vivo): 2640 ng/mL; concentration at 2 h (in vivo): 2070 ng/mL; concentration at 3 h (in vivo): 2030 ng/mL; concentration at 4 h (in vivo): 1820 ng/mL; half-life (in vivo): 1.9 h
[2H]C([2H])([2H])n1c(=O)c2c(ncn2C([2H])([2H])[2H])n(C([2H])([2H])[2H])c1=O [Compound D9-Caffeine, D9-caffeine] | detected in all animals evaluated at each time point through 14 hours post dose | 1540 ng/g | 1640 ng/g | 463 ng/g | 16000 ng·h/mL | 1600 ng/mL | 16000 ng·h/mL | 1600 ng/mL | 16000 ng·h/mL | 0.67 | 4 h | 0.73 | detected in all animals evaluated at each time point through 14 hours post dose | 27000 ng·h/mL | 22000 ng·h/mL | 22000 ng·h/mL | 5 h | 27000 ng·h/mL | 22000 ng·h/mL | 2400 ng/mL | total brain exposure (AUClast,corr) higher than caffeine ([1]; brain, molecular weight corrected, oral 2 mg/kg, rats): approximately 52%; brain Cmax compared with caffeine [1, 13]: slightly lower; AUC exposure in brain compared with a corresponding dose of caffeine ([1]; in words, oral 2 mg/kg, rats): higher; plasma Cmax compared with caffeine [2, 13]: similar; systemic (AUC) exposure in plasma compared with a corresponding dose of caffeine ([2]; in words, oral 2 mg/kg, rats): higher; half-life compared with a corresponding dose of caffeine ([2]; in words, plasma, oral 2 mg/kg, rats): longer; Cmax, corr [2, 12]: 2400 ng/mL; total systemic exposure (AUCinf) higher than caffeine ([2]; plasma, molecular weight corrected, oral 2 mg/kg, rats): approximately 77%; Tmax (in vivo): 3 h; concentration at 0.25 h (in vivo): 1720 ng/mL; concentration at 0.5 h (in vivo): 1740 ng/mL; concentration at 1 h (in vivo): 2090 ng/mL; concentration at 2 h (in vivo): 2340 ng/mL; concentration at 3 h (in vivo): 2360 ng/mL; concentration at 4 h (in vivo): 2270 ng/mL; concentration at 6 h (in vivo): 1790 ng/mL; concentration at 8 h (in vivo): 1550 ng/mL; concentration at 12 h (in vivo): 897 ng/mL; concentration at 14 h (in vivo): 682 ng/mL; half-life (in vivo): 5 h

Reference: patent US20200390128A1 (Lennham Pharmaceuticals, Inc., priority 2019, published 2020)
